Experimental data from ChEMBL document CHEMBL3638768, “(aza)indole derivative and use thereof for medical purposes” (2015).

Biological target: Xanthine dehydrogenase/oxidase (Bos taurus, UniProt P80457)
Assay: Inhibition Assay: Test compounds were dissolved in DMSO (Wako) at 40 mM concentration and then diluted to intended concentrations with phosphate-buffered saline (PBS). Xanthine oxidase (from bovine milk, Sigma) was prepared with phosphate-buffered saline (PBS) at 0.02 units/mL, and then the solution was added to 96 well plates at 50 μL/well. In addition, test compounds diluted with PBS were added at 50 μL/well. Xanthine (Wako) at 200 μM prepared with PBS was added at 100 μL/well, and the reaction was conducted for 10 minutes at room temperature. Absorbance at 290 nm was measured using a microplate reader SpectraMax Plus 384 (Molecular device). The absorbance under a condition without xanthine is 0%, and control without test compounds is 100%.

Sequence of Xanthine dehydrogenase/oxidase (P80457 whole entry): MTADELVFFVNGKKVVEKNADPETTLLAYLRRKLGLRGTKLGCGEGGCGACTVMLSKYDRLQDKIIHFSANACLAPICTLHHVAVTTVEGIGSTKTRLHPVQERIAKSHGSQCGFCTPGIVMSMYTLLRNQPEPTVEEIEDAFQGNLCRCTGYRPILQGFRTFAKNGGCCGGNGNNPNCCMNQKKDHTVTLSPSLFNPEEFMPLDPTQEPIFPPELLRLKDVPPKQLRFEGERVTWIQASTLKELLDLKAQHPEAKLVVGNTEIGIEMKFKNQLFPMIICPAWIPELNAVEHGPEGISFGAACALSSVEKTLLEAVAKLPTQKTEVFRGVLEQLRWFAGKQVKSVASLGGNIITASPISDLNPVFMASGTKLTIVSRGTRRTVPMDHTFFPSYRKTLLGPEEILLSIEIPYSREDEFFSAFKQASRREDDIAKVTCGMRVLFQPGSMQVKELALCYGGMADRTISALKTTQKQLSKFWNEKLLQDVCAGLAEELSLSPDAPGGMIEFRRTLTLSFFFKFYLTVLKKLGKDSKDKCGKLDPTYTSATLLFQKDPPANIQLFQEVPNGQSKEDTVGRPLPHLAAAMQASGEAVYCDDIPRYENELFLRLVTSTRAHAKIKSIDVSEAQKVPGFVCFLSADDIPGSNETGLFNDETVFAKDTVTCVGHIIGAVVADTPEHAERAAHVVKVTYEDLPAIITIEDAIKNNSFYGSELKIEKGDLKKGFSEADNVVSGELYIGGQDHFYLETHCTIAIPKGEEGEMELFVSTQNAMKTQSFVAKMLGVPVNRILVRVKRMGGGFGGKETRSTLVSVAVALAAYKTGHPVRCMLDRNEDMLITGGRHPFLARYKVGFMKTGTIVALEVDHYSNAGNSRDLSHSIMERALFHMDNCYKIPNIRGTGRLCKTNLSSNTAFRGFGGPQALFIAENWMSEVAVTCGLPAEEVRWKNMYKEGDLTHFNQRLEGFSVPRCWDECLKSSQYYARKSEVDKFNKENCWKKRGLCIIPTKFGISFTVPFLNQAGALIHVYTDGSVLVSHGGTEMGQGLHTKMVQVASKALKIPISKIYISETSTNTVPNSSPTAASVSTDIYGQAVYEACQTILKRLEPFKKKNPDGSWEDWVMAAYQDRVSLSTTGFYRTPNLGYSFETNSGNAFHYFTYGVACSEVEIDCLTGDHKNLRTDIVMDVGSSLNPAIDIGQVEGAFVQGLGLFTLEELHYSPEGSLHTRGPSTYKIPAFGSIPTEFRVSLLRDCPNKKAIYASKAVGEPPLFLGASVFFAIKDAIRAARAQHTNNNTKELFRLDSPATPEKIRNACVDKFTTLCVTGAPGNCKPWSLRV

In the case of `N#Cc1cn(-c2ccc(C(=O)O)cn2)c2ccccc12`, the IC50 is reported as 72.9 nM.
